What was measured:
[1] = Second oil phase obtained by adding NaCl to the water phase (Example 4); format: physicochemical; conditions: after separating oil phases I and II
Method: Cross linked polystyrene was used as adsorbent material. The volume flux for loading the adsorbent was 300 ml/min.
The adsorbent was heated to 150 °C, the temperature of the applied water steam was 160 °C.
The water steam flux was 10 g/min and was applied for 100 min.
The oil and water phases were separated.
A second oil phase was separated and was collected.

[2] = Influence of the amount of NaCl on the distribution between oil phase and water phase (Example 5); format: physicochemical

Loss in the water phase [1] | Distribution in [%] between oil phase and water phase after condensation: Oil phase ([2]; NaCl 0%) [%] | Distribution in [%] between oil phase and water phase after condensation: Water phase ([2]; NaCl 0%) [%] | Distribution in [%] between oil phase and water phase after condensation: Oil phase ([2]; NaCl 27.8 %) [%] | Distribution in [%] between oil phase and water phase after condensation: Water phase ([2]; NaCl 27.8 %) [%] | Distribution in [%] between oil phase and water phase after condensation: Oil phase ([2]; NaCl 41.67%) [%] | Distribution in [%] between oil phase and water phase after condensation: Water phase ([2]; NaCl 41.67%) [%] | Distribution in [%] between oil phase and water phase after condensation: Oil phase ([2]; NaCl 55.56 %) [%] | Distribution in [%] between oil phase and water phase after condensation: Water phase ([2]; NaCl 55.56 %) [%] | Distribution in [%] between oil phase and water phase after condensation: Oil phase ([2]; NaCl 69.44 %) [%] | Distribution in [%] between oil phase and water phase after condensation: Water phase ([2]; NaCl 69.44 %) [%] | Distribution in [%] between oil phase and water phase after condensation: Oil phase ([2]; NaCl 83.33 %) [%] | Distribution in [%] between oil phase and water phase after condensation: Water phase ([2]; NaCl 83.33 %) [%] | Structure (SMILES)
1,8% | 59.2 | 40.8 | 89.6 | 10.4 | 93.8 | 6.2 | 96.2 | 3.8 | 97.5 | 2.5 | 98.2 | 1.8 | CCCCCCO [hexanol]
6,0% | 37.9 | 62.1 | 73.6 | 26.4 | 82.6 | 17.4 | 88.4 | 11.6 | 91.7 | 8.3 | 94 | 6 | CCC/C=C/CO [trans-2-hexenol]
1,3% | 49.4 | 50.6 | 85.1 | 14.9 | 92.9 | 7.1 | 95.4 | 4.6 | 97.7 | 2.3 | 98.7 | 1.3 | CCCC(=O)OCC [ethyl butyrate]
0,0% | 100 | 0 | 100 | 0 | 100 | 0 | 100 | 0 | 100 | 0 | 100 | 0 | CC/C=C\CCOC(C)=O [cis-3-hexenyl acetate]
1,5% | 48.4 | 51.6 | 78.9 | 21.1 | 89 | 11 | 94.6 | 5.4 | 97.4 | 2.6 | 98.5 | 1.5 | CCCC(CC=O)OCC (stereo not drawn) [3-ethoxy-hexanal]
0,0% | 91.3 | 8.7 | 100 | 0 | 100 | 0 | 100 | 0 | 100 | 0 | 100 | 0 | CCCCCCCCO [octanol]
54,8% | 10.4 | 89.6 | 20.8 | 79.2 | 30.3 | 69.7 | 33.2 | 66.8 | 38.9 | 61.1 | 45.2 | 54.8 | CCOC(C)=O [ethyl acetate]
0,0% | 70.8 | 29.2 | 96.9 | 3.1 | 98 | 2 | 100 | 0 | 100 | 0 | 100 | 0 | CC(=O)OCCc1ccccc1 [phenylethyl acetate]
12,5% | 35.5 | 64.5 | 63.6 | 36.4 | 71.5 | 28.5 | 76.8 | 23.2 | 83.3 | 16.7 | 87.5 | 12.5 | CCC/C=C/C=O [trans-2-hexenal]

Structure (SMILES) | Loss in the water phase [1] | Distribution in [%] between oil phase and water phase after condensation: Oil phase ([2]; NaCl 0%) [%] | Distribution in [%] between oil phase and water phase after condensation: Water phase ([2]; NaCl 0%) [%] | Distribution in [%] between oil phase and water phase after condensation: Oil phase ([2]; NaCl 27.8 %) [%] | Distribution in [%] between oil phase and water phase after condensation: Water phase ([2]; NaCl 27.8 %) [%] | Distribution in [%] between oil phase and water phase after condensation: Oil phase ([2]; NaCl 41.67%) [%] | Distribution in [%] between oil phase and water phase after condensation: Water phase ([2]; NaCl 41.67%) [%] | Distribution in [%] between oil phase and water phase after condensation: Oil phase ([2]; NaCl 55.56 %) [%] | Distribution in [%] between oil phase and water phase after condensation: Water phase ([2]; NaCl 55.56 %) [%] | Distribution in [%] between oil phase and water phase after condensation: Oil phase ([2]; NaCl 69.44 %) [%] | Distribution in [%] between oil phase and water phase after condensation: Water phase ([2]; NaCl 69.44 %) [%] | Distribution in [%] between oil phase and water phase after condensation: Oil phase ([2]; NaCl 83.33 %) [%] | Distribution in [%] between oil phase and water phase after condensation: Water phase ([2]; NaCl 83.33 %) [%]
CCC(C)COC(C)=O (stereo not drawn) [2-methyl butyl acetate] | 0,2% | 79.3 | 20.7 | 97.1 | 2.9 | 98.6 | 1.4 | 99.2 | 0.8 | 99.7 | 0.3 | 99.8 | 0.2
CCOC(=O)C(C)CC (stereo not drawn) [ethyl 2-methyl butyrate] | 0,0% | 66.1 | 33.9 | 95 | 5 | 97.9 | 2.1 | 98.8 | 1.2 | 99.7 | 0.3 | 100 | 0
CCCCCC(=O)O [caproic acid] | 2,1% | 43.5 | 56.5 | 84.9 | 15.1 | 91.5 | 8.5 | 94.9 | 5.1 | 97 | 3 | 97.9 | 2.1
